This is an account of results in publication PMC5244364 (2017).

Test [1] deals with BCL2 (DNA, G4) CGGGCGCGGGAGGAATTGGGCGGGAGC
Briefly: CD melting. The conditions noted are these: 100 mM KCl, K+ phosphate; 10 mM potassium phosphate pH 7.0; 1:2 DNA:compound (10 µM DNA in CD titration); Tm free 57.1.

For test [2], the system named is VEGFA (DNA, G4) GGGGGCGGGCCGGGGGCGGGGTCCCGGCGGGGCGGAG
Description: ITC. Particulars: 100 mM KCl, K+ phosphate; 10 mM potassium phosphate pH 7.0, 25 °C; 100 µM DNA injected into 10 µM compound; one set of sites.

Test [3] concerns GC rich duplex DNA (DNA, duplex) AGGGTGGGGAGGGT/ACCCTCCCCACCCT
Description: fluorescence anisotropy of compound. The conditions noted are these: 100 mM KCl, K+ phosphate; 10 mM potassium phosphate pH 7.0; 10 µM compound, 0–20 µM duplex. In general terms: Fluorescence polarisation rises when a labelled molecule tumbles more slowly, as on binding a larger partner.

In test [4] the test system is KRAS (DNA, G4) GGGAGGGAGGGAAGGAGGGAGGGAGGGA
Briefly: UV absorption titration (316 nm). The conditions noted are these: 100 mM KCl, K+ phosphate; 10 mM potassium phosphate pH 7.0; 10 µM compound titrated with 0–20 µM DNA; one-site fit.

For test [5] the test system is unchanged. Description: ITC. The conditions noted are these: 100 mM KCl, K+ phosphate; 10 mM potassium phosphate pH 7.0, 25 °C; 100 µM DNA injected into 10 µM compound; one set of sites.
The subject of test [6] is VEGFA (DNA, G4) GGGGGCGGGCCGGGGGCGGGGTCCCGGCGGGGCGGAG
Briefly: CD melting. Particulars: 100 mM KCl, K+ phosphate; 10 mM potassium phosphate pH 7.0; 1:2 DNA:compound (10 µM DNA in CD titration); Tm free 67.3.

Test [7] has as its system GC rich duplex DNA (DNA, duplex) AGGGTGGGGAGGGT/ACCCTCCCCACCCT
Description: ITC. Particulars: 100 mM KCl, K+ phosphate; 10 mM potassium phosphate pH 7.0, 25 °C; 100 µM duplex injected into 10 µM compound.

The subject of test [8] is VEGFA (DNA, G4) GGGGGCGGGCCGGGGGCGGGGTCCCGGCGGGGCGGAG
Description: UV absorption titration (316 nm). Particulars: 100 mM KCl, K+ phosphate; 10 mM potassium phosphate pH 7.0; 10 µM compound titrated with 0–20 µM DNA; one-site fit.

Test [9] concerns KRAS (DNA, G4) GGGAGGGAGGGAAGGAGGGAGGGAGGGA
Description: CD melting. The conditions noted are these: 100 mM KCl, K+ phosphate; 10 mM potassium phosphate pH 7.0; 1:2 DNA:compound (10 µM DNA in CD titration); Tm free 67.5.

The test system of test [10] is BCL2 (DNA, G4) CGGGCGCGGGAGGAATTGGGCGGGAGC
Briefly: UV absorption titration (316 nm). Particulars: 100 mM KCl, K+ phosphate; 10 mM potassium phosphate pH 7.0; 10 µM compound titrated with 0–20 µM DNA; one-site fit.

The test system of test [11] is GC rich duplex DNA (DNA, duplex) AGGGTGGGGAGGGT/ACCCTCCCCACCCT
Briefly: UV absorption titration. The conditions noted are these: 100 mM KCl, K+ phosphate; 10 mM potassium phosphate pH 7.0; 10 µM compound, 0–20 µM duplex; quadruplex affinity 4–16 fold higher.

For test [12], the system named is BCL2 (DNA, G4) CGGGCGCGGGAGGAATTGGGCGGGAGC
Briefly: fluorescence anisotropy of compound. The conditions noted are these: 100 mM KCl, K+ phosphate; 10 mM potassium phosphate pH 7.0; 10 µM compound titrated with DNA.

In test [13] the test system is VEGFA (DNA, G4) GGGGGCGGGCCGGGGGCGGGGTCCCGGCGGGGCGGAG
Briefly: fluorescence anisotropy of compound. The conditions noted are these: 100 mM KCl, K+ phosphate; 10 mM potassium phosphate pH 7.0; 10 µM compound titrated with DNA.

The test system of test [14] is KRAS (DNA, G4) GGGAGGGAGGGAAGGAGGGAGGGAGGGA
Briefly: ethidium bromide displacement, fluorescence. The conditions noted are these: 100 mM KCl, K+ phosphate; 10 mM potassium phosphate pH 7.0; 5 µM ethidium bromide displaced, 10 µM DNA.

For test [15], the system named is BCL2 (DNA, G4) CGGGCGCGGGAGGAATTGGGCGGGAGC
Description: ethidium bromide displacement, fluorescence. The conditions noted are these: 100 mM KCl, K+ phosphate; 10 mM potassium phosphate pH 7.0; 5 µM ethidium bromide displaced, 10 µM DNA.

The test system of test [16] is VEGFA (DNA, G4) GGGGGCGGGCCGGGGGCGGGGTCCCGGCGGGGCGGAG
Description: ethidium bromide displacement, fluorescence. Particulars: 100 mM KCl, K+ phosphate; 10 mM potassium phosphate pH 7.0; 5 µM ethidium bromide displaced, 10 µM DNA.

For test [17], the system named is BCL2 (DNA, G4) CGGGCGCGGGAGGAATTGGGCGGGAGC
Briefly: ITC. The conditions noted are these: 100 mM KCl, K+ phosphate; 10 mM potassium phosphate pH 7.0, 25 °C; 100 µM DNA injected into 10 µM compound; one set of sites.

Test [18] deals with KRAS (DNA, G4) GGGAGGGAGGGAAGGAGGGAGGGAGGGA
Description: fluorescence anisotropy of compound. Particulars: 100 mM KCl, K+ phosphate; 10 mM potassium phosphate pH 7.0; 10 µM compound titrated with DNA.

Take `COc1ccc2c(c[n+](C)c3c4cc5c(cc4ccc23)OCO5)c1OC`: the “∆Tm” value worked out at 16.2 °C in test [1], 3.3 °C in test [6] and 4.6 °C in [9]. For the same molecule, the KD (commonly a measure of binding affinity in units of concentration) in [2] came to 980 nM; in [3] it was 6140 ± 2000 nM; in [4] it was 720 ± 200 nM; in [5], 870 nM; in test [7] it was 4330 nM; in [8], 510 ± 300 nM. For the same molecule, the KD in test [10] stood at 1920 ± 700 nM; in test [11], 8330 ± 400 nM; in test [12], 3200 nM; in test [13], 250 nM; in test [17] it was 600 nM; in test [18], 1500 nM. Further, the binding entry in test [14], in [15] and in test [16] was “yes” each time.
